Measurements published in US20040014030A1, “Enzymatic assay of HIV protease inhibitors” (priority 2002, published 2004).
Where a SMILES comes first, the peptide text is derived from it.

Target: T1, HIV-1 protease (Human immunodeficiency virus type 1 group M subtype B, UniProt P04585)
T1 construct: the enzyme HIV-1 protease; purchased BACHEM AMERICAS (King of Prussia, Pa.)
Assay: Kinetic parameter determination: hydrolysis of chromogenic substrate by HIV-1 PR monitored at 300 nm
Assay type: biochemical
Conditions: substrate hydrolysis by HIV-1 PR, 25° C., pH 4.9 assay buffer
Procedure: The synthetic chromogenic substrate, H-His-Lys-Ala-Arg-Val-Leu*Nph-Glu-Ala-Nle-Ser-NH2 (SEQ ID NO:3) and the enzyme HIV-1 protease (0.65 milligrams per milliliter (mg/mL), 16 International Units per milligram (IU/mg)) were purchased from BACHEM AMERICAS (King of Prussia, Pa.).
A stock solution containing 1 mg/mL of the chromogenic substrate in HIV PR assay buffer (50 millimolar (mM) sodium acetate, pH 4.9, 200 mM NaCl, 5 mM diothiothreitol (DTT), 10% (v/v) glycerol) was prepared by dissolving 5 mg chromogenic substrate in 5 mL of assay buffer. A substrate solution at a concentration of 101 micromolar (μM) was prepared in HIV-PR assay buffer from the substrate stock in a sample cup of Roche COBAS FARA. The stock mixture of HIV-1 PR as received was then diluted by 20-fold into this mixture. The hydrolysis of substrate by HIV-1 PR was monitored at 300 nm at 25° C. on a ROCHE DIAGNOSTICS COBAS FARA instrument.
A stock solution containing the chromogenic substrate at a concentration of 3 mg/mL was prepared by dissolving 5 mg chromogenic substrate in 1.67 mL of the assay buffer as described in Example 1. A series of substrate solutions were prepared in the HIV-PR assay buffer over the concentration range of 0-2282 μM. The stock solution of HIV-1 PR was then diluted by 20-fold into HIV PR assay buffer. The hydrolysis of substrate by HIV-1 PR was monitored at 300 nm at 25° C. on a ROCHE DIAGNOSTICS COBAS FARA instrument, as described in Example 1.

Compound: CCCC[C@H](NC(=O)[C@H](C)NC(=O)[C@H](CCC(=O)O)NC(=O)[C@H](Cc1ccc([N+](=O)[O-])cc1)NC(=O)[C@H](CC(C)C)NC(=O)[C@@H](NC(=O)[C@H](CCCNC(=N)N)NC(=O)[C@H](C)NC(=O)[C@H](CCCCN)NC(=O)[C@@H](N)Cc1c[nH]cn1)C(C)C)C(=O)N[C@@H](CO)C(N)=O [chromogenic substrate, H-His-Lys-Ala-Arg-Val-Leu*Nph-Glu-Ala-Nle-Ser-NH2] (HELM PEPTIDE1{H.K.A.R.V.L.[O=C([C@H](Cc1ccc([N+](=O)[O-])cc1)N[*:1])[*:2]].E.A.[Nle].S.[am]}$$$$V2.0)
- apparent Vmax: 156.81 µmol/mg/min
- apparent kcat: 58.02 s⁻¹
- Km (substrate 0-2282 μM, read-out: apparent Km): 67 ± 7.55 µM
